# In ChEMBL document CHEMBL5303573, “Mapping human microbiome drug metabolism by gut bacteria and their genes” (Nature, 2019):
# Assays:
# [1] = roseburia intestinalis, 12 h, 2 µM
# Description: The drug is tested on Roseburia intestinalis strain: L1-82 for biotransformation. The drug concentrations were measured before and after a 12-h incubation by liquid-chromatography-coupled mass spectrometry (LC–MS)
# [2] = bacteroides intestinalis, 12 h, 2 µM
# Description: The drug is tested on Bacteroides intestinalis strain: DSM17393 for biotransformation. The drug concentrations were measured before and after a 12-h incubation by liquid-chromatography-coupled mass spectrometry (LC–MS)
# [3] = The drug is tested on Eubacterium ventriosum strain: ATCC27560 for biotransformation. The drug concentrations were measured before and after a 12-h incubation by liquid-chromatography-coupled mass spectrometry (LC–MS); format: ADME; parameters: dose 2 uM, timepoint 0 vs 12 hours; conditions: 2 µM
# [4] = The drug is tested on Collinsella aerofaciens strain: ATCC25986 for biotransformation. The drug concentrations were measured before and after a 12-h incubation by liquid-chromatography-coupled mass spectrometry (LC–MS); conditions: 2 µM
# [5] = The drug is tested on Bacteroides finegoldii strain: DSM17565 for biotransformation. The drug concentrations were measured before and after a 12-h incubation by liquid-chromatography-coupled mass spectrometry (LC–MS); conditions: 2 µM
# [6] = The drug is tested on Ruminococcus torques strain: ATCC27756 for biotransformation. The drug concentrations were measured before and after a 12-h incubation by liquid-chromatography-coupled mass spectrometry (LC–MS); format: ADME; parameters: dose 2 uM, timepoint 0 vs 12 hours; conditions: 2 µM
# [7] = The drug is tested on Bacteroides sp. WH2 strain: WH2 for biotransformation. The drug concentrations were measured before and after a 12-h incubation by liquid-chromatography-coupled mass spectrometry (LC–MS); conditions: bacteroides sp. wh2, 12 h, 2 µM
# [8] = bacteroides fragilis, 12 h, 2 µM
# Description: The drug is tested on Bacteroides fragilis strain: 3397 (T10) for biotransformation. The drug concentrations were measured before and after a 12-h incubation by liquid-chromatography-coupled mass spectrometry (LC–MS)
# [9] = The drug is tested on Bifidobacterium breve strain: DSM20213 for biotransformation. The drug concentrations were measured before and after a 12-h incubation by liquid-chromatography-coupled mass spectrometry (LC–MS); conditions: 2 µM
# [10] = The drug is tested on Bacteroides dorei strain: DSM17855 for biotransformation. The drug concentrations were measured before and after a 12-h incubation by liquid-chromatography-coupled mass spectrometry (LC–MS); conditions: phocaeicola dorei, 2 µM
# [11] = The drug is tested on Dorea formicigenerans strain: ATCC27755 for biotransformation. The drug concentrations were measured before and after a 12-h incubation by liquid-chromatography-coupled mass spectrometry (LC–MS); conditions: 2 µM
# [12] = The drug is tested on Anaerotruncus colihominis strain: DSM17241 for biotransformation. The drug concentrations were measured before and after a 12-h incubation by liquid-chromatography-coupled mass spectrometry (LC–MS); conditions: 2 µM
# [13] = The drug is tested on Ruminococcus lactaris strain: ATCC29176 for biotransformation. The drug concentrations were measured before and after a 12-h incubation by liquid-chromatography-coupled mass spectrometry (LC–MS); conditions: 2 µM
# [14] = bifidobacterium adolescentis, 12 h, 2 µM
# Description: The drug is tested on Bifidobacterium adolescentis strain: ATCC 15703 for biotransformation. The drug concentrations were measured before and after a 12-h incubation by liquid-chromatography-coupled mass spectrometry (LC–MS)
# [15] = akkermansia muciniphila, 12 h, 2 µM
# Description: The drug is tested on Akkermansia muciniphila strain: ATCC BAA-835 for biotransformation. The drug concentrations were measured before and after a 12-h incubation by liquid-chromatography-coupled mass spectrometry (LC–MS)
# [16] = bacteroides thetaiotaomicron, 12 h, 2 µM
# Description: The drug is tested on Bacteroides thetaiotaomicron strain: 7330 for biotransformation. The drug concentrations were measured before and after a 12-h incubation by liquid-chromatography-coupled mass spectrometry (LC–MS)
# [17] = The drug is tested on Bacteroides caccae strain: ATCC43185 for biotransformation. The drug concentrations were measured before and after a 12-h incubation by liquid-chromatography-coupled mass spectrometry (LC–MS); conditions: 2 µM
# [18] = parabacteroides distasonis, 12 h, 2 µM
# Description: The drug is tested on Parabacteroides distasonis strain: ATCC8503 for biotransformation. The drug concentrations were measured before and after a 12-h incubation by liquid-chromatography-coupled mass spectrometry (LC–MS)
# [19] = The drug is tested on Bacteroides coprophilus strain: DSM18228 for biotransformation. The drug concentrations were measured before and after a 12-h incubation by liquid-chromatography-coupled mass spectrometry (LC–MS); conditions: 2 µM
# [20] = The drug is tested on Escherichia coli strain: BW25113 for biotransformation. The drug concentrations were measured before and after a 12-h incubation by liquid-chromatography-coupled mass spectrometry (LC–MS); conditions: 2 µM
SMILES,Bacterial Biotransformation [1],Bacterial Biotransformation [2],Bacterial Biotransformation [3],Bacterial Biotransformation [4],Bacterial Biotransformation [5],Bacterial Biotransformation [6],Bacterial Biotransformation [7],Bacterial Biotransformation [8],Bacterial Biotransformation [9],Bacterial Biotransformation [10],Bacterial Biotransformation [11],Bacterial Biotransformation [12],Bacterial Biotransformation [13],Bacterial Biotransformation [14],Bacterial Biotransformation [15],Bacterial Biotransformation [16],Bacterial Biotransformation [17],Bacterial Biotransformation [18],Bacterial Biotransformation [19],Bacterial Biotransformation [20]
CSc1ccc2c(c1)C(N1CCN(C)CC1)Cc1ccccc1S2.O=C(O)/C=C\C(=O)O (stereo not given),Compound NOT metabolized,Compound NOT metabolized,Compound NOT metabolized,Compound NOT metabolized,Compound NOT metabolized,Compound NOT metabolized,Compound NOT metabolized,Compound NOT metabolized,Compound metabolized,Compound NOT metabolized,Compound NOT metabolized,Compound metabolized,Compound NOT metabolized,Compound NOT metabolized,Compound NOT metabolized,Compound NOT metabolized,Compound NOT metabolized,Compound metabolized,Compound NOT metabolized,–
NC12CC3CC(CC(C3)C1)C2 [AMANTADINE],Compound NOT metabolized,–,Compound NOT metabolized,Compound NOT metabolized,Compound NOT metabolized,Compound NOT metabolized,Compound NOT metabolized,–,Compound NOT metabolized,Compound NOT metabolized,Compound NOT metabolized,Compound NOT metabolized,Compound NOT metabolized,Compound NOT metabolized,Compound NOT metabolized,Compound metabolized,Compound NOT metabolized,Compound NOT metabolized,Compound NOT metabolized,–
CN(C)CCOC(c1ccc(Cl)cc1)c1ccccn1.O=C(O)/C=C\C(=O)O (stereo not given) [CARBINOXAMINE MALEATE],Compound NOT metabolized,Compound NOT metabolized,Compound NOT metabolized,Compound NOT metabolized,Compound NOT metabolized,Compound NOT metabolized,Compound NOT metabolized,Compound NOT metabolized,Compound NOT metabolized,Compound NOT metabolized,Compound NOT metabolized,Compound NOT metabolized,Compound NOT metabolized,Compound NOT metabolized,Compound NOT metabolized,Compound NOT metabolized,Compound NOT metabolized,Compound NOT metabolized,Compound NOT metabolized,–
COc1cc2c(c(OC)c1OC)-c1ccc(OC)c(=O)cc1[C@@H](NC(C)=O)CC2 [COLCHICINE],Compound metabolized,Compound metabolized,Compound NOT metabolized,Compound NOT metabolized,–,Compound NOT metabolized,–,Compound metabolized,Compound NOT metabolized,Compound metabolized,Compound NOT metabolized,Compound NOT metabolized,Compound NOT metabolized,Compound NOT metabolized,Compound NOT metabolized,Compound metabolized,–,Compound metabolized,Compound NOT metabolized,–
CCS(=O)(=O)CCn1c([N+](=O)[O-])cnc1C [TINIDAZOLE],Compound metabolized,Compound metabolized,Compound metabolized,Compound metabolized,Compound metabolized,Compound metabolized,Compound metabolized,Compound metabolized,Compound metabolized,Compound metabolized,Compound metabolized,Compound metabolized,Compound metabolized,Compound metabolized,Compound metabolized,Compound metabolized,Compound metabolized,Compound metabolized,Compound NOT metabolized,–

# Further lines, results first:
Bacterial Biotransformation [1],Bacterial Biotransformation [2],Bacterial Biotransformation [3],Bacterial Biotransformation [4],Bacterial Biotransformation [5],Bacterial Biotransformation [6],Bacterial Biotransformation [7],Bacterial Biotransformation [8],Bacterial Biotransformation [9],Bacterial Biotransformation [10],Bacterial Biotransformation [11],Bacterial Biotransformation [12],Bacterial Biotransformation [13],Bacterial Biotransformation [14],Bacterial Biotransformation [15],Bacterial Biotransformation [16],Bacterial Biotransformation [17],Bacterial Biotransformation [18],Bacterial Biotransformation [19],Bacterial Biotransformation [20],SMILES
Compound NOT metabolized,Compound metabolized,Compound NOT metabolized,Compound NOT metabolized,Compound metabolized,Compound NOT metabolized,Compound NOT metabolized,Compound metabolized,Compound NOT metabolized,Compound metabolized,Compound NOT metabolized,Compound NOT metabolized,Compound NOT metabolized,–,Compound NOT metabolized,Compound metabolized,Compound NOT metabolized,Compound metabolized,Compound metabolized,–,O=C(O)COCCN1CCN(C(c2ccccc2)c2ccc(Cl)cc2)CC1 (stereo not given) [CETIRIZINE]
–,Compound NOT metabolized,Compound NOT metabolized,Compound NOT metabolized,Compound NOT metabolized,Compound NOT metabolized,Compound NOT metabolized,Compound NOT metabolized,Compound NOT metabolized,–,Compound NOT metabolized,Compound NOT metabolized,Compound NOT metabolized,Compound NOT metabolized,–,–,Compound NOT metabolized,Compound NOT metabolized,Compound NOT metabolized,Compound NOT metabolized,CN(C)CCC=C1c2ccccc2C=Cc2ccccc21 [CYCLOBENZAPRINE]
Compound metabolized,Compound metabolized,Compound metabolized,Compound metabolized,Compound metabolized,Compound metabolized,Compound metabolized,Compound metabolized,Compound metabolized,Compound metabolized,Compound metabolized,Compound metabolized,Compound metabolized,Compound metabolized,Compound metabolized,Compound metabolized,Compound metabolized,Compound metabolized,Compound metabolized,–,CC(=O)Nc1ccc(OC(C)=O)cc1 [DIACETAMATE]
Compound NOT metabolized,Compound metabolized,Compound NOT metabolized,Compound metabolized,Compound metabolized,Compound NOT metabolized,Compound NOT metabolized,–,Compound metabolized,Compound metabolized,Compound NOT metabolized,Compound NOT metabolized,Compound NOT metabolized,Compound NOT metabolized,Compound NOT metabolized,Compound metabolized,–,Compound metabolized,Compound metabolized,–,CCOc1cc(CC(=O)N[C@@H](CC(C)C)c2ccccc2N2CCCCC2)ccc1C(=O)O [REPAGLINIDE]
